Assay results from ChEMBL document CHEMBL6078723, “Novel steroidal β-carboline derivatives as promising antibacterial candidates against methicillin-resistant Staphylococcus aureus” (Eur J Med Chem, 2025).

Legend:
Staphylococcus aureus [1] = assay: Antibacterial activity against methicillin-resistant Staphylococcus aureus ATCC 43300 in presence of Na+ (reference value: 0.5 ug/ml); type: functional
Staphylococcus aureus [2] = assay: Antibacterial activity against methicillin-resistant Staphylococcus aureus ATCC 43300 at pH 6.5 (reference value: 0.5 ug/ml); type: functional
Staphylococcus aureus [3] = assay: Antibacterial activity against methicillin-resistant Staphylococcus aureus CGMCC1.12409 at 37.5 degreeC (reference value: 0.5 ug/ml); type: functional
Staphylococcus aureus [4] = assay: Antibacterial activity against methicillin-resistant Staphylococcus aureus ATCC 33591 in presence of Fe3+ (reference value: 1 ug/ml); type: functional
Staphylococcus aureus [5] = assay: Induction of loss of membrane integrity in Staphylococcus aureus CGMCC1.8721 assessed as protein leakage; type: functional, organism-based

In the case of `COc1ccc2[nH]c3c(CC[C@H](C)[C@H]4CC[C@H]5[C@@H]6[C@H](O)C[C@@H]7C[C@H](O)CC[C@]7(C)[C@H]6C[C@H](O)[C@]45C)[n+](Cc4ccc(Cl)cc4)ccc3c2c1.[Br-]`, the MIC (Staphylococcus aureus [1]) is reported as 0.5 µg/mL, the MIC (Staphylococcus aureus [2]) is reported as 0.5 µg/mL and the MIC (Staphylococcus aureus [3]) is reported as 0.5 µg/mL. The MIC (Staphylococcus aureus [4]) was 1 µg/mL and the Activity (Staphylococcus aureus [5]) was “Dose-dependent-effect”.
